Data on two compounds can be found in patent US8207182B2, “Substituted cyclic urea derivatives and the use thereof as vanilloid receptor 1 modulators” (Gruenenthal GmbH, priority 2005, dated 2012).

In general, IC50 refers to the point on the concentration scale where inhibition reaches its midpoint.

The assay has as its target T1, vanilloid receptor 1 (VR1/TRPV1) (Rattus norvegicus, UniProt O35433).
T1 construct: from tissue; host or cells: primary cells dissociated from rat dorsal root ganglia (DRGs), cultured for two to three days
Put plainly: Functional investigation on the vanilloid receptor 1 (FLIPR Ca2+ influx assay, capsaicin). The format is cell-based. To be noted: rat dorsal root ganglia cells, Fluo-4 FLIPR, 100 nM capsaicin. The source says: I. Functional Investigation on the Vanilloid Receptor 1 (VRI/TRPV1 Receptor)
The agonistic or antagonistic action of the substances to be investigated on the vanilloid receptor 1 (VR1/TRPV1) of the species rat can be determined using the following assay. According to this assay, the Ca^2+ influx through the receptor channel is quantified with the aid of a Ca^2+-sensitive dye (Type Fluo-4, Molecular Probes Europe BV, Leiden Netherlands) in a fluorescent imaging plate reader (FLIPR, Molecular Devices, Sunnyvale, USA).
Complete medium: 50 mL of HAMS F12 Nutrient Mixture (Gibco Invitrogen GmbH, Karlsruhe, Germany) with
10% by volume of FCS (fetal calf serum, Gibco Invitrogen GmbH, Karlsruhe, Germany, heat-inactivated);
2 mM L-glutamine (Sigma, Munich, Germany);
1% by weight of AA solution (antibiotic/antimycotic solution, PAA, Pasching, Austria) and 25 ng/mL of Medium NGF (2.5 S, Gibco Invitrogen GmbH, Karlsruhe, Germany) […]
The DRGs are in each case repeatedly suspended, drawn through No. 1, No. 12 and No. 16 needles by means of a syringe and transferred to 50 mL Falcon tubes and these are filled to 15 mL with complete medium. […] The resulting pellet is in each case taken up in 250 μL of complete medium and the cell count is determined. […]

T1 sequence (O35433 whole entry): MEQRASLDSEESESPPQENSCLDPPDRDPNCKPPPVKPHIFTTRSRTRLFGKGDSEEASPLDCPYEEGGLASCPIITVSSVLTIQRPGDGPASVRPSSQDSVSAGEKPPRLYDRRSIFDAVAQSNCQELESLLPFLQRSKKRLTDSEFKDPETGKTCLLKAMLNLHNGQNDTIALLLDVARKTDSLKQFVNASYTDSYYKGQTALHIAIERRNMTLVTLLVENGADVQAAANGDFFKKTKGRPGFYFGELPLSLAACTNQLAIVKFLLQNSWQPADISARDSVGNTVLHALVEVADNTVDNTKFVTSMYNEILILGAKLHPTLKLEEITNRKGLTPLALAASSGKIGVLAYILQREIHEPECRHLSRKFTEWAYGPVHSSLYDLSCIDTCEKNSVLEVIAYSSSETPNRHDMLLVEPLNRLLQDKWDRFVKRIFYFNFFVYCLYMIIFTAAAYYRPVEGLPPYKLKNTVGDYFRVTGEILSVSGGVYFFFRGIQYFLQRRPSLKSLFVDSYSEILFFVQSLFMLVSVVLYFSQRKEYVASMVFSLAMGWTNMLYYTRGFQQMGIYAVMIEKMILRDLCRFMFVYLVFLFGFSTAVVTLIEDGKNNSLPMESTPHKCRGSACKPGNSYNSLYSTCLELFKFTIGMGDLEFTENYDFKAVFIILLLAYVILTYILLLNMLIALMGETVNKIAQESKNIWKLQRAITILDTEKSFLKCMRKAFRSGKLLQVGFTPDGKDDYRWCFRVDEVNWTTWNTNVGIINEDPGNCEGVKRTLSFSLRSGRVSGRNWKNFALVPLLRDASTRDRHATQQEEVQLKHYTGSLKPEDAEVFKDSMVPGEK

`CC(C)(C)c1ccc(CN2CCN(Cc3ccc(NS(C)(=O)=O)cc3)C2=O)cc1` [Example 4, N-{4-[3-(4-tert-butylbenzyl)-2-oxoimidazolidin-1-ylmethyl]-phenyl}methanesulfonamide] had an IC50 of 9.4 µM. This lies in the single-digit micromolar range. `CC(C)(C)c1ccc(CN2CCCN(Cc3ccc(NS(C)(=O)=O)cc3)C2=O)cc1` [Example 5, N-{4-[3-(4-tert-butylbenzyl)-2-oxotetrahydropyrimidin-1-ylmethyl]-phenyl}methanesulfonamide] displayed an IC50 of 2.9 µM. Compared with the last compound, the IC50 is about 3.2-fold lower.
